From patent US9708308B2, “Factor IXa inhibitors” (Merck Sharp & Dohme Corp., priority 2012, dated 2017) come the findings set out here.

The assay has as its target Factor IXa (Homo sapiens, UniProt P00740). Nature of the assay: Determination of inhibitory activity against Factor IXa (cleavage of fluorescent peptide substrate). It counts as biochemical. The conditions noted are these: cleavage of fluorescent peptide CH3SO2-D-CHG-Gly-Arg-AFC, release of AFC; read-out: FIXa IC50. An excerpt:
• (R)—N-(3-aminobenzo[d]isoxazol-6-yl)-2-hydroxy-2-((R)-4-(1-(6-methoxypyridazin-4-yl)-1H-pyrazol-3-yl)-6,6-dimethyl-3-oxomorpholin-2-yl)acetamide. Determination of Inhibitory Activity Against Factor IXa
Formation of a clot to stem bleeding at a site of blood vessel injury involves the coordinated activity of a group of plasma proteins that initiate and propagate fibrin formation and subsequently protect fibrin from premature degradation. Factor IX is a key component of the plasma system that forms a fibrin clot at a site of vascular injury. The activity of Factor IXa is measured by monitoring the cleavage of the fluorescent peptide, CH3SO2-D-CHG-Gly-Arg-AFC.AcOH (“CHG” is cyclohexyl-glycine and “AFC” is trifluoro aminomethyl coumarin). Factor IXa cleaves the amide bond between Arg and AFC, thereby releasing the AFC fluorophore. The free AFC can be detected with a fluorescence detector at an excitation wavelength of 405 nm and emission wavelength of 510 nm.

Chain of Factor IXa (P00740 227-461 limits assumed): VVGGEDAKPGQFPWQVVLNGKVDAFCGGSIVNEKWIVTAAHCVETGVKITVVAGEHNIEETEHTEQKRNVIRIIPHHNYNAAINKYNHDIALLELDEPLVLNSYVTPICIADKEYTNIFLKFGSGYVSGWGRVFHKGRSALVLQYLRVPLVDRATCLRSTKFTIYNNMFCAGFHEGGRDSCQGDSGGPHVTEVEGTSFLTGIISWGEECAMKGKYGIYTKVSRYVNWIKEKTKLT
Chain of Factor IXa (P00740 47-191 partner limits assumed): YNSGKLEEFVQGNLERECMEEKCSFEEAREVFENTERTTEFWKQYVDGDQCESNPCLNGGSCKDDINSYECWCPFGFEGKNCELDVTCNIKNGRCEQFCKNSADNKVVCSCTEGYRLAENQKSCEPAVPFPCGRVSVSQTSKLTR

The IC50 is the midpoint of a concentration-inhibition curve. Take `C[C@](O)(C(=O)Nc1cc(Cl)c2c(N)noc2c1)[C@H]1OCCN(c2nn(-c3cnnc(C#N)c3)cc2F)C1=O` [Example 124, (R)—N-(3-amino-4-chlorobenzo[d]isoxazol-6-yl)-2-((R)-4-(1-(6-cyanopyridazin-4-yl)-4-fluoro-1H-pyrazol-3-yl)-3-oxomorpholin-2-yl)-2-hydroxypropanamide]: the IC50 is 158 nM.
For `CC(C)Oc1cc(-n2ccc(N3CCO[C@H]([C@@](C)(O)C(=O)Nc4cc(F)c5c(N)noc5c4)C3=O)n2)cnn1` [Example 137, (R)—N-(3-amino-4-fluorobenzo[d]isoxazol-6-yl)-2-hydroxy-2-((R)-4-(1-(6-isopropoxypyridazin-4-yl)-1H-pyrazol-3-yl)-3-oxomorpholin-2-yl)propanamide] the value was 190 nM; for `C[C@](O)(C(=O)Nc1ccc(CN)cc1)[C@H]1OCCN(c2ccn(-c3ccncc3)n2)C1=O` [Example 150, (R)—N-(4-(aminomethyl)phenyl)-2-hydroxy-2-((R)-3-oxo-4-(1-(pyridin-4-yl)-1H-pyrazol-3-yl)morpholin-2-yl)propanamide], 66.2 nM.
For `COc1cc(-n2ccc(N3CCO[C@H]([C@@](C)(O)C(=O)Nc4cc(F)c5c(N)noc5c4)C3=O)n2)ccn1` [Example 133, (R)—N-(3-amino-4-fluorobenzo[d]isoxazol-6-yl)-2-hydroxy-2-((R)-4-(1-(2-methoxypyridin-4-yl)-1H-pyrazol-3-yl)-3-oxomorpholin-2-yl)propanamide], the concentration for half-maximal inhibition (IC50) is 275 nM.
In the case of `C[C@]1([C@@H](O)C(=O)Nc2ccc3c(N)noc3c2)OCCN(c2ccn(-c3ccc(C#N)cc3)n2)C1=O` [Example 80, (R)—N-(3-aminobenzo[d]isoxazol-6-yl)-2-((R)-4-(1-(4-cyanophenyl)-1H-pyrazol-3-yl)-2-methyl-3-oxomorpholin-2-yl)-2-hydroxyacetamide] it was 25.3 nM.
In the case of `COc1cc(-n2ccc(N3CC(C)(C)O[C@H]([C@@H](O)C(=O)Nc4ccc5c(N)noc5c4)C3=O)n2)ccn1` [Example 171, (R)—N-(3-aminobenzo[d]isoxazol-6-yl)-2-hydroxy-2-((R)-4-(1-(2-methoxypyridin-4-yl)-1H-pyrazol-3-yl)-6,6-dimethyl-3-oxomorpholin-2-yl)acetamide] it was 20.9 nM; in that of `COc1cc(-n2ccc(N3CCO[C@H]([C@@](C)(O)C(=O)Nc4ccc5c(N)noc5c4)C3=O)n2)c(F)cn1` [Example 27, (R)—N-(3-aminobenzo[d]isoxazol-6-yl)-2-((R)-4-(1-(5-fluoro-2-methoxypyridin-4-yl)-1H-pyrazol-3-yl)-3-oxomorpholin-2-yl)-2-hydroxypropanamide], 148 nM.
In the case of `C[C@](O)(C(=O)Nc1ccc2c(N)noc2c1)[C@H]1OCCN(c2cc3n(n2)CCC3)C1=O` [Example 71, (R)—N-(3-aminobenzo[d]isoxazol-6-yl)-2-((R)-4-(5,6-dihydro-4H-pyrrolo[1,2-b]pyrazol-2-yl)-3-oxomorpholin-2-yl)-2-hydroxypropanamide] it was 368 nM.
`COc1nccc(-n2ccc(N3CCO[C@H]([C@@](C)(O)C(=O)Nc4ccc5c(N)noc5c4)C3=O)n2)n1` [Example 55, (R)—N-(3-aminobenzo[d]isoxazol-6-yl)-2-hydroxy-2-((R)-4-(1-(2-methoxypyrimidin-4-yl)-1H-pyrazol-3-yl)-3-oxomorpholin-2-yl)propanamide]: the IC50 stood at 24.8 nM.
For `C[C@]1([C@@H](O)C(=O)Nc2ccc3c(N)noc3c2)OCCN(c2nc(-c3ccncc3)co2)C1=O` [Example 105, (R)—N-(3-aminobenzo[d]isoxazol-6-yl)-2-hydroxy-2-((R)-2-methyl-3-oxo-4-(4-(pyridin-4-yl)oxazol-2-yl)morpholin-2-yl)acetamide] the value was 97.9 nM; for `COc1nccc(-n2ccc(N3CCO[C@](C)([C@@H](O)C(=O)Nc4cc(F)c5c(N)noc5c4)C3=O)n2)n1` [Example 143, (R)—N-(3-amino-4-fluorobenzo[d]isoxazol-6-yl)-2-hydroxy-2-((R)-4-(1-(2-methoxypyrimidin-4-yl)-1H-pyrazol-3-yl)-2-methyl-3-oxomorpholin-2-yl)acetamide], 22.1 nM; for `C[C@]1([C@@H](O)C(=O)Nc2ccc3c(N)noc3c2)OCCN(c2ccn(-c3cnnc(C#N)c3)n2)C1=O` [Example 100, (R)—N-(3-aminobenzo[d]isoxazol-6-yl)-2-((R)-4-(1-(6-cyanopyridazin-4-yl)-1H-pyrazol-3-yl)-2-methyl-3-oxomorpholin-2-yl)-2-hydroxyacetamide], 2.17 nM.
In the case of `Cc1cc(N2CCO[C@](C)([C@@H](O)C(=O)Nc3ccc4c(N)noc4c3)C2=O)nn1C1CC1` [Example 104, (R)—N-(3-aminobenzo[d]isoxazol-6-yl)-2-((R)-4-(1-cyclopropyl-5-methyl-1H-pyrazol-3-yl)-2-methyl-3-oxomorpholin-2-yl)-2-hydroxyacetamide] it was 401 nM.
For `C[C@](O)(C(=O)Nc1ccc2c(N)noc2c1)[C@H]1OCCN(c2ccc(-c3ccnc(C#N)c3)o2)C1=O` [Example 61, (R)—N-(3-aminobenzo[d]isoxazol-6-yl)-2-((R)-4-(5-(2-cyanopyridin-4-yl)furan-2-yl)-3-oxomorpholin-2-yl)-2-hydroxypropanamide] the value was 93 nM; for `COc1nccc(-n2cc(F)c(N3CCO[C@H]([C@@](C)(O)C(=O)Nc4ccc5c(N)noc5c4)C3=O)n2)n1` [Example 58, (R)—N-(3-aminobenzo[d]isoxazol-6-yl)-2-((R)-4-(4-fluoro-1-(2-methoxypyrimidin-4-yl)-1H-pyrazol-3-yl)-3-oxomorpholin-2-yl)-2-hydroxypropanamide], 32 nM; for `C[C@]1([C@@H](O)C(=O)Nc2ccc3c(N)noc3c2)OCCN(c2cccc(-c3ccnnc3)n2)C1=O` [Example 112, (R)—N-(3-aminobenzo[d]isoxazol-6-yl)-2-hydroxy-2-((R)-2-methyl-3-oxo-4-(6-(pyridazin-4-yl)pyridin-2-yl)morpholin-2-yl)acetamide], 41.6 nM.
`C[C@]1([C@@H](O)C(=O)Nc2ccc3c(N)noc3c2)OCCN(c2ccn(-c3ccnnc3)n2)C1=O` [Example 97, (R)—N-(3-aminobenzo[d]isoxazol-6-yl)-2-hydroxy-2-((R)-2-methyl-3-oxo-4-(1-(pyridazin-4-yl)-1H-pyrazol-3-yl)morpholin-2-yl)acetamide]: the concentration for half-maximal inhibition (IC50) stood at 3.68 nM.
For `COc1cc(-n2ccc(N3CCO[C@H]([C@@](C)(O)C(=O)Nc4ccc5c(N)noc5c4)C3=O)n2)c(Br)cn1` [Example 26, (R)—N-(3-aminobenzo[d]isoxazol-6-yl)-2-((R)-4-(1-(5-bromo-2-methoxypyridin-4-yl)-1H-pyrazol-3-yl)-3-oxomorpholin-2-yl)-2-hydroxypropanamide] the value was 346 nM; for `COc1cc(-n2ccc(N3CCO[C@H]([C@@](C)(O)C(=O)Nc4ccc5c(N)noc5c4)C3=O)n2)c(Cl)cn1` [Example 28, (R)—N-(3-aminobenzo[d]isoxazol-6-yl)-2-((R)-4-(1-(5-chloro-2-methoxypyridin-4-yl)-1H-pyrazol-3-yl)-3-oxomorpholin-2-yl)-2-hydroxypropanamide], 445 nM.
In the case of `COc1nccc(-n2ccc(N3CCO[C@H]([C@@](C)(O)C(=O)Nc4cc(F)c5c(N)noc5c4)C3=O)n2)n1` [Example 141, (R)—N-(3-amino-4-fluorobenzo[d]isoxazol-6-yl)-2-hydroxy-2-((R)-4-(1-(2-methoxypyrimidin-4-yl)-1H-pyrazol-3-yl)-3-oxomorpholin-2-yl)propanamide] it was 107 nM; in that of `CN(C)c1cc(-n2ccc(N3CCO[C@H]([C@@](C)(O)C(=O)Nc4ccc5c(N)noc5c4)C3=O)n2)ccn1` [Example 25, (R)—N-(3-aminobenzo[d]isoxazol-6-yl)-2-((R)-4-(1-(2-(dimethylamino)pyridin-4-yl)-1H-pyrazol-3-yl)-3-oxomorpholin-2-yl)-2-hydroxypropanamide], 95.4 nM; in that of `C[C@@H]1CN(c2ccn(-c3ccnnc3)n2)C(=O)[C@@H]([C@@H](O)C(=O)Nc2ccc3c(N)noc3c2)O1` [Example 157, (R)—N-(3-aminobenzo[d]isoxazol-6-yl)-2-hydroxy-2-((2R,6R)-6-methyl-3-oxo-4-(1-(pyridazin-4-yl)-1H-pyrazol-3-yl)morpholin-2-yl)acetamide], 1.34 nM.
For `Cc1[nH]c2ccc(NC(=O)[C@](C)(O)[C@H]3OCCN(c4ccn(-c5ccnnc5)n4)C3=O)cc2c1Cl` [Example 146, (R)—N-(3-chloro-2-methyl-1H-indol-5-yl)-2-hydroxy-2-((R)-3-oxo-4-(1-(pyridazin-4-yl)-1H-pyrazol-3-yl)morpholin-2-yl)propanamide], the IC50 is 28.1 nM.
For `C[C@]1([C@@H](O)C(=O)Nc2ccc3c(N)noc3c2)OCCN(c2ccn(-c3cccnc3)n2)C1=O` [Example 85, (R)—N-(3-aminobenzo[d]isoxazol-6-yl)-2-hydroxy-2-((R)-2-methyl-3-oxo-4-(1-(pyridin-3-yl)-1H-pyrazol-3-yl)morpholin-2-yl)acetamide] the value was 279 nM; for `C[C@]1([C@@H](O)C(=O)Nc2ccc3c(N)noc3c2)OCCN(c2ccn(-c3cnc(C(F)(F)F)nc3)n2)C1=O` [Example 102, (R)—N-(3-aminobenzo[d]isoxazol-6-yl)-2-hydroxy-2-((R)-2-methyl-3-oxo-4-(1-(2-(trifluoromethyl)pyrimidin-5-yl)-1H-pyrazol-3-yl)morpholin-2-yl)acetamide], 124 nM.
